Experimental findings from PubChem BioAssay AID489033 (Sanford-Burnham Center for Chemical Genomics, 2010) are described below.

Activity calls are given as the source filed them. No rule for the calls is given here.

The subject of the assay is 697B B-cell line, NF-kB luciferase reporter luminescence. The experiment in a line: NF-kB reporter inhibition in B cells, dose response, selectivity assay for T-cell antigen receptor NF-kB inhibitors, 697B cells, luminescence (AID 489033).
Regarding `COc1ccc(C(=O)NNC(=O)c2ccccn2)cc1`, the IC50 was 5.2 µM.

Turning to `COc1cc2nc(CN3CC=C(c4ccccc4)CC3)[nH]c(=O)c2cc1OC`, the IC50 was 13.8 µM.

`O=C(c1cn(Cc2ccccc2)nc1-c1ccccc1)N1CCN(c2ccccn2)CC1`: the IC50 is > 80 µM (inactive).

`COc1cc(Cn2c(-c3nonc3N)nc3ccccc32)ccc1C`: the IC50 was > 80 µM (inactive).

As for `Clc1ccc2c(c1)C(C1=NCCN1)c1ccccc1CS2` (stereo not drawn), the IC50 is > 80 µM (inactive).

For the molecule `COc1cc(C2c3cc4c(cc3C(OC3OC5COC(c6cccs6)OC5C(O)C3O)C3COC(=O)C23)OCO4)cc(OC)c1O` (stereo not drawn), the IC50 was 3.94 µM.

Take `Cc1ccc2c(c1)COc1c3ccc(C(=O)O)cc3nn1-2`: the half-maximal inhibitory concentration (IC50) is 13.4 µM.

Turning to `O=C(NNc1ccnc2cc(Cl)ccc12)C1CCCCC1`, the IC50 is > 80 µM (inactive).

For `COc1ccc(Nc2ncnc3ccc(Br)cc23)c(OC)c1`, the IC50 is 0.37 µM.

Regarding `CCOc1ccc(N/C(N)=N/c2nc(CSc3nnc(C)s3)cc(=O)[nH]2)cc1`, the IC50 is > 80 µM (inactive).

In the case of `COc1ccc(C(C(=O)NC2CCCCC2)N(C(=O)CCl)c2ccc(C)cc2)cc1` (stereo not drawn), the IC50 is below 0.16 µM.

On to `CS(=O)(=O)c1ccc(Sc2nc3ccccc3s2)c([N+](=O)[O-])c1`, for which the IC50 was 1.11 µM.

Turning to `Cc1c(C)c2cccnc2c2ncccc12`, the IC50 was 6.81 µM.

`C/C(=N\NC(=O)c1cc(C)nc2ccccc12)c1ccccn1`: the IC50 was 1.23 µM.

Consider `COc1ccc(CNS(=O)(=O)c2cc(-c3cc(C)no3)ccc2C(C)C)cc1`, for which the IC50 was > 80 µM (inactive).

For `O=C(Nc1ccc(S(=O)(=O)N2CCN(Cc3ccccc3)CC2)cc1)c1cnccn1`, the IC50 was > 80 µM (inactive).

Turning to `CCOc1cc(C#N)c(NC(=O)c2cccnc2)cc1OCC`, the IC50 is > 80 µM (inactive).

For the molecule `CCOC(=O)c1[nH]c(C)c(C(=O)Nc2cc(Cl)ccc2C)c1C`, the IC50 was > 80 µM (inactive).

`CSc1ccc(COC(=O)c2cc([N+](=O)[O-])ccc2N2CCOCC2)cc1`: the IC50 is 30 µM (inactive).

Consider `Cc1c(C(=O)N/N=C/c2ccc(Cl)cc2)[nH]c2ccc(Cl)cc12`, for which the IC50 is > 80 µM (inactive).

Consider `CCC(=O)NC(c1ccc(C)cc1)c1ccc2cccnc2c1O` (stereo not drawn), for which the IC50 is > 80 µM (inactive).

On to `CNC[C@H](CC1CCCCC1)NC[C@H](Cc1ccccc1)NCCC12CC3CC(CC(C3)C1)C2`, for which the IC50 was 7.73 µM.

For the molecule `COc1cc2c(c(OC)c1OC)-c1ccc(OC)c(=O)cc1[C@@H](NC(C)=O)CC2`, the IC50 is > 80 µM (inactive).

Take `O=C(Nc1ccc(N2CCCCC2)cc1)c1ccccn1`: the IC50 was 0.41 µM.

Regarding `COc1cccc(-c2cc(=O)c3cc(NC(=O)c4ccc(N(C)C)cc4)ccc3[nH]2)c1`, the IC50 was > 80 µM (inactive).

On to `COC(=O)c1cnc(Oc2ccc(NC(=O)NC(=O)c3c(F)cccc3Cl)cc2)cc1C(F)(F)F`, for which the IC50 was > 80 µM (inactive).

Consider `O=S1(=O)Nc2c(ccc3cccnc23)-c2ccccc21`, for which the IC50 was 0.54 µM.

In the case of `COc1cc([C@@H]2c3cc4c(cc3[C@H](O)[C@H]3COC(=O)[C@H]23)OCO4)cc(OC)c1OC`, the IC50 was > 80 µM (inactive).

`COc1cc(-c2noc(C)c2/C=C/c2cccc([N+](=O)[O-])c2)cc(OC)c1OC`: the IC50 is > 80 µM (inactive).

In the case of `COc1ccc(NC(=O)Cn2nnc(-c3ccccc3NS(=O)(=O)c3ccc(OC)cc3)n2)cc1`, the IC50 is > 80 µM (inactive).

`CCOc1ccc2c(c1)sc(N)[n+]2Cc1cc(C)cc2cccnc12`: the IC50 is 33.3 µM (inactive).

As for `O=C1/C(=C/c2ccc(N3CCOCC3)o2)SC(=Nc2ccccc2)N1CCc1c[nH]c2ccccc12`, the IC50 was 12.8 µM.

For the molecule `CC(C)n1c(CN(C)Cc2ccccc2)nc2c1c(=O)n(C)c(=O)n2C`, the IC50 is 43.7 µM (inactive).

In the case of `COc1cc(-c2noc(C)c2-c2ccc3[nH]ccc3c2)cc(OC)c1OC`, the IC50 is > 80 µM (inactive).

As to `COc1cc(/C=C/C(=O)c2ccc([N+](=O)[O-])o2)ccc1O`, the IC50 was 14.5 µM.

As for `COc1ccc(-c2c(C#N)c(N)nc3c2CCc2ccccc2-3)cc1OC`, the IC50 is 54.4 µM (inactive).

On to `Cc1ccc(NC(=O)c2cc3ccccc3oc2=O)cc1S(=O)(=O)N(C)C`, for which the IC50 was below 0.16 µM.

As for `Cc1ccc(C(=O)c2cc([N+](=O)[O-])ccc2N2CCOCC2)cc1C`, the IC50 is > 80 µM (inactive).

In the case of `CC(=O)c1c(C)[nH]c(C(=O)OCC(=O)Nc2ccc(C)cc2[N+](=O)[O-])c1C`, the IC50 is 11.3 µM.

As to `C=C(C)C(=O)O[C@H]1C/C(C)=C\C(=O)/C=C(\C)[C@H](O)[C@@H]2OC(=O)C(=C)[C@@H]21`, the IC50 is 1.06 µM.

For the molecule `COc1ccc(C(=O)N(C)Cc2cnn(Cc3ccccc3)c2)cc1S(=O)(=O)N1CCOCC1`, the IC50 was > 80 µM (inactive).

For the molecule `COC(=O)c1ccc2nc(Nc3nc4c(F)cc(F)cc4s3)sc2c1`, the IC50 was 24.6 µM (inactive).

Take `CCCCCCCCn1c2c(c(=N)c3ccccc31)CCC2`: the IC50 is 2.31 µM.

With `O=C(Nc1ccc(S(=O)(=O)Nc2ccccc2)cc1)c1ccc(CN2CCOCC2)cc1`, the IC50 is 46.1 µM (inactive).

Consider `CCOc1ccccc1NC(=O)Cn1nnc(C(=O)NCc2cccs2)c1N`, for which the IC50 is > 80 µM (inactive).

Regarding `Cc1nc2ccccc2c2c1CC(C(C)(Cl)Br)O2` (stereo not drawn), the IC50 was 22.8 µM (inactive).

Take `COc1ccc(S(=O)(=O)/N=C2\C=C(Nc3ccc(O)cc3)C(=O)c3ccccc32)cc1`: the half-maximal inhibitory concentration (IC50) is 2.18 µM.

With `Cc1nc2c(=O)n(C)c(=O)nc-2n(C)n1`, the IC50 is 3.36 µM.

Regarding `CCOc1ccc(Nc2cc(C)nc(-n3nc(C)cc3C)n2)cc1`, the IC50 was > 80 µM (inactive).

Take `Cn1c2c(c(=O)n(C)c1=O)C(C(F)(F)F)(C(F)(F)F)N=C(c1ccc(Cl)cc1)N2`: the IC50 was 1.93 µM.

`COc1cc(C(=O)Nc2ccc3c(c2)CCN3C(C)=O)cc(OC)c1OC`: the IC50 is > 80 µM (inactive).

On to `CC(C)(C)c1cc(C=C(C#N)C#N)cc(C(C)(C)C)c1O`, for which the IC50 is > 80 µM (inactive).

Turning to `CCC(C)C(=O)N[C@@H](c1ccccc1)[C@@H](O)C(=O)O[C@H]1C[C@@]2(O)[C@@H](OC(=O)c3ccccc3)C3[C@](C)(C(=O)[C@H](OC(C)=O)C(=C1C)C2(C)C)[C@@H](O)C[C@H]1OC[C@@]31OC(C)=O` (stereo partly drawn), the IC50 was > 80 µM (inactive).

In the case of `Cc1ccc(C(=O)Nc2ncc(Cc3ccc(SC(F)F)cc3)s2)cc1`, the IC50 is > 80 µM (inactive).

`CC/C=C/CC(=O)N[C@@H](c1ccccc1)[C@@H](O)C(=O)O[C@H]1C[C@@]2(O)[C@@H](OC(=O)c3ccccc3)C3[C@](C)(C(=O)[C@H](OC(C)=O)C(=C1C)C2(C)C)[C@@H](O)C[C@H]1OC[C@@]31OC(C)=O` (stereo partly drawn): the IC50 was > 80 µM (inactive).

Regarding `COc1cc(C2C(C#N)=C(N)Oc3cc4c(cc32)OCO4)cc(OC)c1OC` (stereo not drawn), the IC50 is > 80 µM (inactive).

As to `CCCSc1nnc(Sc2nnnn2-c2ccccc2)s1`, the IC50 is 7 µM.

On to `Cc1ccc(N(C)S(=O)(=O)c2ccc(-c3cnc(C4CC4)o3)cc2)cc1`, for which the IC50 is 67.6 µM (inactive).

As for `CC(=O)O[C@H]1C(=O)[C@@]2(C)C([C@H](OC(=O)c3ccccc3)[C@]3(O)C[C@H](OC(=O)[C@H](O)[C@@H](NC(=O)Cc4ccccc4)c4ccccc4)C(C)=C1C3(C)C)[C@]1(OC(C)=O)CO[C@@H]1C[C@@H]2O` (stereo partly drawn), the IC50 was > 80 µM (inactive).

On to `COc1ccccc1C1=NOC(COc2ccc3c(C)cc(=O)oc3c2)C1` (stereo not drawn), for which the IC50 was > 80 µM (inactive).

Consider `CC(=O)O[C@H]1C(=O)[C@@]2(C)C([C@H](OC(=O)c3ccccc3)[C@]3(O)C[C@H](OC(=O)[C@H](O)[C@@H](NC(=O)c4ccccc4)c4ccccc4)C(C)=C1C3(C)C)[C@]1(OC(C)=O)CO[C@@H]1C[C@H]2O` (stereo partly drawn), for which the IC50 is > 80 µM (inactive).

Regarding `Cc1ccsc1/C=N/NC(=O)c1cc(-c2ccncc2)nc2ccccc12`, the IC50 was 2.38 µM.

As for `Cc1ccc(S(=O)(=O)Cc2ccc(C(=O)N3CCN(c4cccc(C)c4C)CC3)o2)cc1`, the IC50 was 57.9 µM (inactive).

With `C#CC[N+](C)(C)CCCCCCCCCCCC`, the IC50 was 2.56 µM.

`O=C1CC(c2cccc(Br)c2)c2cc3c(cc2N1)CCC3` (stereo not drawn): the IC50 was 30.7 µM (inactive).

On to `COc1cc2c(c(OC)c1OC)-c1ccc(OC)c(=O)cc1[C@@H](N(C)CC#CCO)CC2`, for which the IC50 is > 80 µM (inactive).

In the case of `COc1ccccc1C(=O)N(CCC1CCCN1C)c1nc2ccccc2s1` (stereo not drawn), the IC50 was > 80 µM (inactive).

Take `Cc1cccc(N2CCN(C(=O)c3c(-c4ccccc4)noc3C)CC2)c1C`: the IC50 is > 80 µM (inactive).

Turning to `COc1ccc([N+](=O)[O-])cc1Nc1c2ccccc2nc2ccccc12`, the IC50 is > 80 µM (inactive).

Turning to `O=c1cc(-c2ccccc2)[nH]c2ccccc12`, the IC50 was > 80 µM (inactive).

With `O=C(Nc1ccc(S(=O)(=O)Nc2ccc(F)cc2)cc1)c1ccc(CN2CCOCC2)cc1`, the IC50 was > 80 µM (inactive).

For the molecule `C[C@]12CC[C@H]3[C@@H](CC[C@]4(O)C[C@@H](O)CC[C@]34C=O)[C@@]1(O)CC[C@@H]2C1=CC(=O)OC1`, the IC50 was 1.13 µM.

For the molecule `CCCC(=O)NC(c1ccc(C(C)C)cc1)c1ccc2cccnc2c1O` (stereo not drawn), the IC50 is > 80 µM (inactive).

On to `Cc1ccc(Nc2nc(-c3c(C)nc4ncccn34)cs2)cc1`, for which the IC50 was > 80 µM (inactive).

As to `COc1ccc(CC(=O)Nc2nc(-c3ccc(F)c(F)c3)cs2)cc1OC`, the IC50 is 57.5 µM (inactive).

Regarding `CCn1ncc(C2=NOC(C(=O)NCc3ccccc3)C2)c1C` (stereo not drawn), the IC50 was > 80 µM (inactive).

`O=C(NN=Cc1c(O)ccc2ccccc12)c1ccc2c(c1)OCO2`: the IC50 was > 80 µM (inactive).

As for `Clc1ccc(CSc2nncn2-c2ccc3c(c2)OCCO3)cc1`, the IC50 is 70 µM (inactive).

`N#Cc1ccc(-c2cccs2)nc1SCc1cccnc1`: the IC50 was > 80 µM (inactive).

Regarding `Cc1ccc(C(=O)c2cc([N+](=O)[O-])ccc2N2CCOCC2)c(C)c1`, the IC50 is > 80 µM (inactive).

As to `CCCCCCCCCCn1c2c(c(=N)c3c1CCC3)CCC2`, the IC50 is 2.68 µM.

Consider `Cc1ccc2cccc(NS(=O)(=O)c3ccccc3)c2n1`, for which the IC50 is 0.94 µM.

Take `CCOC(=O)COc1cccc2c(=O)n(CC(=O)NCc3ccccc3)ccc12`: the IC50 was > 80 µM (inactive).

By IC50 is commonly meant the concentration at which inhibition is half-maximal.
